The values that follow come from patent publication US8546451B2 (priority 2005, dated 2013).

This assay addresses ER-β ligand binding domain (LBD) (Homo sapiens (Human), UniProt Q92731). Put plainly: ER-β competitive radioligand binding assay with [3H]E2. The settings on record: read-out: ER-β Ki. The method, then: Following incubation, plates were harvested with GF/B filters on the Unifilter-96 Harvester (PerkinElmer) and washed three times with ice-cold buffer B (50 mM Tris, pH 7.2). The filter plates were dried at room temperature, then 35 μl Microscint-O cocktail was added to each well and the filter plates were sealed with TopSeal-A. Radioactivity was counted in a TopCount® NXT Microplate Scintillation Counter using the settings for ^3H in Microscint cocktail (PerkinElmer).
E2 (determined by incubating with 10^−6 M unlabeled E2) and expressing it as a percentage of the specific binding in the absence of test compound.

Sequence of ER-β ligand binding domain (LBD) (Q92731 264-498, species assumed): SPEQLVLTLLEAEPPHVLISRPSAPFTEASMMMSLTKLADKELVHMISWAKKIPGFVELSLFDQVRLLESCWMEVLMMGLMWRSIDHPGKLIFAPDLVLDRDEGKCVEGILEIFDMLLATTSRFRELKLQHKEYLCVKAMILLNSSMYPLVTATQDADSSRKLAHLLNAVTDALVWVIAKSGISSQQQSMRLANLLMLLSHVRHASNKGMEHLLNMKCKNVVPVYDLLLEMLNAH

As for `O=C(c1ccc(O)c(F)c1)N(c1ccc(O)cc1)c1ccc(F)cc1` [Compound IV, 3-fluoro-N-(4-fluorophenyl)-4-hydroxy-N-(4-hydroxyphenyl)benzamide], the Ki is 15.2 ± 4.1 nM.

By Ki is commonly meant the dissociation constant of the complex between target and ligand, obtained from inhibition or displacement.
